In patent US20250026753A1, “FUSED TRIAZINONE DERIVATIVES AND METHODS OF USING THE SAME” (Rgenta Therapeutics, Inc., priority 2021, published 2025):
Counter-ions that a name gives are not always drawn.

How the values were obtained:
K562 = assay: Cell proliferation assay (CellTiterGlo, 72 hour incubation), K562; type: cell-based; details: Homo sapiens, K562 cells, inhibition of cell proliferation, CellTiterGlo luminescence
Experimental: (§1) Various cancer cell lines including K562 and COLO201, were treated with the compounds of the present disclosure to assess their effect on inhibiting cell proliferation.
(§2) For compound preparation, test compounds were diluted in duplicates from 10 mM stocks in 11-points 1:3 serial dilutions in DMSO. Then 125 nL test compounds at the serial dilutions were dispensed into 384-well assay plate using Echo dispenser. Staurosporine at 1 mM stock (5 μM final concentration) and DMSO (0.500 final concentration) were used as the positive and negative controls respectively.
(§3) To prepare cell lines, each frozen cell line stock was resuspended and grown in proper growth medium to a density of 40,000 cells/mL. Then 25 μL of cell suspension were dispensed into the assay plate to give seed cell density at 1,000 cells/well, compounds at 50 μM top concentration with 11-point serial dilutions, and 0.5% o DMSO final concentration. Assay plates were then centrifuged at 300 rpm for 1 minute and then incubated at 37° C., 9500 humidity, 500 CO2 for 72 hours. After the 72 hour incubation, the assay plate and its contents were equilibrated at room temperature for approximately 30 minutes. 25 μL of CellTiterGlo reagent was added to the assay plate and mixed for two minutes on an orbital shaker. Then after 10 minutes of incubation of assay plate at from temperature, the luminescence (RLU) signals in each well were recorded using Envision plate reader, then converted to percentage inhibition values using the signals in staurosporine and DMSO treated wells as the references. IC50 values were determined by curve fitting in Levenberg-Marquardt algorithm.

COLO201 = assay: Cell proliferation assay (CellTiterGlo, 72 hour incubation), COLO201; type: cell-based; details: Homo sapiens, COLO 201, COLO201 cells, inhibition of cell proliferation, CellTiterGlo luminescence
Experimental: as §1, §2, §3

Which IC50 (K562) does the source give for `Cc1cn2cc(-c3nc(=O)n4cc(N5CCNCC5)ccc4n3)cc(F)c2n1` [Compound 99, 2-{8-fluoro-2-methylimidazo[1,2-a]pyridin-6-yl}-7-(piperazin-1-yl)-4H-pyrido[1,2-a][1,3,5]triazin-4-one] here?
Its IC50 is < 1 µM.

How did the IC50 (COLO201) turn out when `Cc1cn2cc(-c3nc(=O)n4cc(N5CCNCC5)ccc4n3)cc(F)c2n1` [Compound 100, 2-(8-fluoro-2-methylimidazo[1,2-a]pyridin-6-yl)-7-(piperazin-1-yl)-4H-pyrido[1,2-a][1,3,5]triazin-4-one hydrochloride] was run?
Its IC50 is < 1 µM.

What does the source list for `Cc1cn2cc(-c3nc(=O)n4cc(N5CCN[C@@H](C)C5)ccc4n3)cc(F)c2n1` [Compound 101]?
IC50 (K562): < 1 µM; IC50 (COLO201): < 1 µM

What does the source list for `Cc1cn2cc(-c3nc(=O)n4cc(N5CCN[C@H](C)C5)ccc4n3)cc(F)c2n1` [Compound 102, (R)-2-(8-fluoro-2-methylimidazo[1,2-a]pyridin-6-yl)-7-(3-methylpiperazin-1-yl)-4H-pyrido[1,2-a][1,3,5]triazin-4-one formic acid]?
IC50 (K562): < 1 µM; IC50 (COLO201): 1 to 10 µM

With `Cc1cn2cc(-c3nc(=O)n4cc(N5CCN(C)CC5)ccc4n3)cc(F)c2n1` [Compound 103, 2-(8-fluoro-2-methylimidazo[1,2-a]pyridin-6-yl)-7-(4-methylpiperazin-1-yl)-4H-pyrido[1,2-a][1,3,5]triazin-4-one] as the compound, how does the IC50 (K562) read?
The IC50 was 1 to 10 µM.

And the IC50 (COLO201)?
Its IC50 is 1 to 10 µM.

For `Cc1cn2cc(-c3nc(=O)n4cc(N5CCCNCC5)ccc4n3)cc(F)c2n1` [Compound 104, 7-(1,4-diazepan-1-yl)-2-(8-fluoro-2-methylimidazo[1,2-a]pyridin-6-yl)-4H-pyrido[1,2-a][1,3,5]triazin-4-one hydrochloride], which IC50 (K562) is on record?
The IC50 was ≥ 10 µM.

What about the IC50 (COLO201) of the same compound?
Its IC50 is ≥ 10 µM.

With `Cc1cn2cc(-c3nc(=O)n4cc(N5CC6CCC(C5)N6)ccc4n3)cc(F)c2n1` [Compound 105, 7-(3,8-diazabicyclo[3.2.1]octan-3-yl)-2-(8-fluoro-2-methylimidazo[1,2-a]pyridin-6-yl)-4H-pyrido[1,2-a][1,3,5]triazin-4-one hydrochloride] as the compound, how does the IC50 (K562) read?
Its IC50 is ≥ 10 µM.

What about the IC50 (COLO201) of the same compound?
Its IC50 is ≥ 10 µM.

What does the source list for `Cc1cn2cc(-c3nc(=O)n4cc(N5CC6CNCC6C5)ccc4n3)cc(F)c2n1` (stereo not shown) [Compound 106, 2-(8-fluoro-2-methylimidazo[1,2-a]pyridin-6-yl)-7-(hexahydropyrrolo[3,4-c]pyrrol-2(1H)-yl)-4H-pyrido[1,2-a][1,3,5]triazin-4-one hydrochloride]?
IC50 (K562): ≥ 10 µM; IC50 (COLO201): ≥ 10 µM

With `Cc1cn2cc(-c3nc(=O)n4cc(N5C[C@@H](C)N[C@@H](C)C5)ccc4n3)cc(F)c2n1` [Compound 107, 7-((3S,5R)-3,5-dimethylpiperazin-1-yl)-2-(8-fluoro-2-methylimidazo[1,2-a]pyridin-6-yl)-4H-pyrido[1,2-a][1,3,5]triazin-4-one hydrochloride] as the compound, how does the IC50 (K562) read?
Its IC50 is < 1 µM.

What about the IC50 (COLO201) of the same compound?
The IC50 was < 1 µM.

Which results are given for `Cc1cn2cc(-c3nc(=O)n4cc(N5CCNCC5)cc(C)c4n3)cc(F)c2n1` [Compound 108, 2-(8-fluoro-2-methylimidazo[1,2-a]pyridin-6-yl)-9-methyl-7-(piperazin-1-yl)-4H-pyrido[1,2-a][1,3,5]triazin-4-one hydrochloride]?
IC50 (K562): 1 to 10 µM; IC50 (COLO201): < 1 µM

What does the source list for `Cc1cn2cc(-c3nc(=O)n4cc(N5CCNC(C)(C)C5)ccc4n3)cc(F)c2n1` [Compound 109, 7-(3,3-dimethylpiperazin-1-yl)-2-(8-fluoro-2-methylimidazo [1,2-a]pyridin-6-yl)-4H-pyrido[1,2-a][1,3,5]triazin-4-one]?
IC50 (K562): < 1 µM; IC50 (COLO201): < 1 µM

What does the source list for `Cc1cn2cc(-c3nc(=O)n4cc(N5CCNCC5)cc(F)c4n3)cc(F)c2n1` [Compound 110, 9-fluoro-2-(8-fluoro-2-methylimidazo[1,2-a]pyridin-6-yl)-7-(piperazin-1-yl)-4H-pyrido[1,2-a][1,3,5]triazin-4-one hydrochloride]?
IC50 (K562): < 1 µM; IC50 (COLO201): < 1 µM

Which IC50 (K562) does the source give for `Cc1cn2cc(-c3nc(=O)n4cc(C5=CCNCC5)ccc4n3)cc(F)c2n1` [Compound 111, 2-(8-fluoro-2-methylimidazo[1,2-a]pyridin-6-yl)-7-(1,2,3,6-tetrahydropyridin-4-yl)-4H-pyrido[1,2-a][1,3,5]triazin-4-one hydrochloride] here?
The IC50 was 1 to 10 µM.

What about the IC50 (COLO201) of the same compound?
Its IC50 is < 1 µM.

`Cc1cn2cc(-c3nc(=O)n4cc(C5CCNC5)ccc4n3)cc(F)c2n1` (stereo not shown) [Compound 112, 2-(8-fluoro-2-methylimidazo[1,2-a]pyridin-6-yl)-7-(pyrrolidin-3-yl)-4H-pyrido[1,2-a][1,3,5]triazin-4-one hydrochloride] was tested. Which IC50 (K562) did it give?
Its IC50 is 1 to 10 µM.

With `COc1cc(N2CCNCC2)cn2c(=O)nc(-c3cc(F)c4nc(C)cn4c3)nc12` [Compound 114, 2-(8-fluoro-2-methylimidazo[1,2-a]pyridin-6-yl)-9-methoxy-7-(piperazin-1-yl)-4H-pyrido[1,2-a][1,3,5]triazin-4-one hydrochloride] as the compound, how does the IC50 (K562) read?
The IC50 was 1 to 10 µM.

What about the IC50 (COLO201) of the same compound?
Its IC50 is 1 to 10 µM.

Which IC50 (K562) does the source give for `Cc1cn2cc(-c3nc(=O)n4cc(N5CCNCC5)c(C)cc4n3)cc(F)c2n1` [Compound 115, 2-(8-fluoro-2-methylimidazo[1,2-a]pyridin-6-yl)-8-methyl-7-(piperazin-1-yl)-4H-pyrido[1,2-a][1,3,5]triazin-4-one hydrochloride] here?
Its IC50 is < 1 µM.

And the IC50 (COLO201)?
Its IC50 is 1 to 10 µM.

What does the source list for `Cc1cn2cc(-c3nc(=O)n4cc(N5CCN[C@@H](C)C5)cc(F)c4n3)cc(F)c2n1` [Compound 116, (S)-9-fluoro-2-(8-fluoro-2-methylimidazo[1,2-a]pyridine-6-yl)-7-(3-methylpiperazin-1-yl)-4H-pyrido[1,2-a][1,3,5]triazin-4-one]?
IC50 (K562): < 1 µM; IC50 (COLO201): < 1 µM

What does the source list for `Cc1cn2cc(-c3nc(=O)n4cc(N5CCN[C@@H](C)C5)cc(C)c4n3)cc(F)c2n1` [Compound 117, (S)-2-(8-fluoro-2-methylimidazo[1,2-a]pyridin-6-yl)-9-methyl-7-(3-methylpiperazin-1-yl)-4H-pyrido[1,2-a][1,3,5]triazin-4-one hydrochloride]?
IC50 (K562): < 1 µM; IC50 (COLO201): < 1 µM

How did the IC50 (K562) turn out when `Cc1cn2cc(-c3nc(=O)n4cc(N5CCN[C@@H](C)C5)cc(C)c4n3)cc(C)c2n1` [Compound 123, (S)-2-(2,8-dimethylimidazo[1,2-a]pyridin-6-yl)-9-methyl-7-(3-methylpiperazin-1-yl)-4H-pyrido[1,2-a][1,3,5]triazin-4-one hydrochloride] was run?
The IC50 was 1 to 10 µM.

`Cc1cn2cc(-c3nc(=O)n4cc(N5CCN(C)[C@@H](C)C5)cc(C)c4n3)cc(F)c2n1` [Compound 124, (S)-7-(3,4-dimethylpiperazin-1-yl)-2-(8-fluoro-2-methylimidazo[1,2-a]pyridin-6-yl)-9-methyl-4H-pyrido[1,2-a][1,3,5]triazin-4-one] was tested. Which IC50 (K562) did it give?
Its IC50 is 1 to 10 µM.

With `Cc1cn2cc(-c3nc(=O)n4cc(N5CCNC(C)(C)C5)cc(C)c4n3)cc(F)c2n1` [Compound 125, 7-(3,3-dimethylpiperazin-1-yl)-2-(8-fluoro-2-methylimidazo [1,2-a]pyridin-6-yl)-9-methyl-4H-pyrido[1,2-a][1,3,5]triazin-4-one hydrochloride] as the compound, how does the IC50 (K562) read?
Its IC50 is 1 to 10 µM.

Which IC50 (K562) does the source give for `Cc1cn2cc(-c3nc(=O)n4cc(N5CCNCC5)ccc4n3)cc(C)c2n1` [Compound 126, 2-2,8-dimethylimidazo[1,2-a]pyridin-6-yl-7-(piperazin-1-yl)-4H-pyrido[1,2-a][1,3,5]triazin-4-one hydrochloride] here?
The IC50 was 1 to 10 µM.

How did the IC50 (K562) turn out when `CC[C@H]1CN(c2cc(F)c3nc(-c4cc(F)c5nc(C)cn5c4)nc(=O)n3c2)CCN1` [Compound 128, 7-[(3S)-3-ethylpiperazin-1-yl]-9-fluoro-2-{8-fluoro-2-methylimidazo[1,2-a]pyridin-6-yl}-4H-pyrido[1,2-a][1,3,5]triazin-4-one] was run?
The IC50 was < 1 µM.

How did the IC50 (K562) turn out when `Cc1cc2cc(-c3nc(=O)n4cc(N5CCN[C@@H](C)C5)cc(C)c4n3)cc(C)n2n1` [Compound 129, 2-{2,7-dimethylpyrazolo[1,5-a]pyridin-5-yl}-9-methyl-7-[(3S)-3-methylpiperazin-1-yl]-4H-pyrido[1,2-a][1,3,5]triazin-4-one] was run?
The IC50 was 1 to 10 µM.

`Cc1cn2cc(-c3nc(=O)n4cc(N5CCNC(C)(C)C5)cc(F)c4n3)cc(F)c2n1` [Compound 130, 7-(3,3-dimethylpiperazin-1-yl)-9-fluoro-2-{8-fluoro-2-methylimidazo[1,2-a]pyridin-6-yl}-4H-pyrido[1,2-a][1,3,5]triazin-4-one] was tested. Which IC50 (K562) did it give?
The IC50 was < 1 µM.

With `Cc1cn2cc(-c3nc(=O)n4cc(N5CCNC6(CC6)C5)cc(C)c4n3)cc(F)c2n1` [Compound 132, 7-{4,7-diazaspiro[2.5]octan-7-yl}-2-{8-fluoro-2-methylimidazo[1,2-a]pyridin-6-yl}-9-methyl-4H-pyrido[1,2-a][1,3,5]triazin-4-one] as the compound, how does the IC50 (K562) read?
The IC50 was 1 to 10 µM.

Which IC50 (K562) does the source give for `Cc1cc2cc(-c3nc(=O)n4cc(N5CCN[C@@H](C)C5)ccc4n3)cc(C)n2n1` [Compound 134, (S)-2-(2,7-dimethylpyrazolo[1,5-a]pyridin-5-yl)-7-(3-methylpiperazin-1-yl)-4H-pyrido[1,2-a][1,3,5]triazin-4-one] here?
The IC50 was 1 to 10 µM.

How did the IC50 (K562) turn out when `Cc1cc2cc(-c3nc(=O)n4cc(N5CCNC(C)(C)C5)cc(F)c4n3)cc(C)n2n1` [Compound 135, 7-(3,3-dimethylpiperazin-1-yl)-2-(2,7-dimethylpyrazolo[1,5-a]pyridin-5-yl)-9-fluoro-4H-pyrido[1,2-a][1,3,5]triazin-4-one] was run?
Its IC50 is 1 to 10 µM.
